Data from US7652034B2, “Enantiomer (-) of tenatoprazole and the therapeutic use thereof” (Sidem Pharma, priority 2004, dated 2010).
Read-outs that look alike come from different tables or passages of the source.

Tests used:
[1] = doses of between 10 mg and 80 mg; previous studies; cited from earlier work
[2] = recent studies; versus omeprazole, lansoprazole and other PPIs; cited from earlier work
[3] = test system: ligature of the pylorus in the rat (gastric secretions); assay: model of ligature of the pylorus in the rat: volume and pH of gastric secretion; format: in vivo; details: for pharmacological effect 10 h after treatment administration: pylorus ligature, as compared to the control group
Protocol: In vivo Studies in Rats: Assessment of Volume and pH of Gastric Secretion. Studies conducted by the applicant in vivo in a model of ligature of the pylorus in the rat have investigated the pharmacological effects of the (−) and (+) isomers of tenatoprazole. In this well established and validated model, animals are pre-treated at different time points (10, 16 and 20 h) before ligature of the pylorus, and the volume and pH of the gastric secretions are measured 4 h after the ligature.

intragastric pH in dogs = assay: antisecretory effect in dogs: intragastric pH over 24 h; format: in vivo; details: for % of holding time for 24 hours pH > 3 / % of holding time for 24 hours pH > 4: 10 mg/kg/day
Protocol: In vivo Studies in Dogs: Assessment of the Antisecretory Effect. Studies conducted by the applicant in vivo in dogs have investigated the antisecretory effect of the (−) isomer of tenatoprazole and the (+) isomer, by measuring the intragastric pH after treatment administration for 6 days (10 mg/kg/day). The profile of intragastric pH during a 24-hour period was recorded on the first two days of administration, on the 6th day, and two days after treatment termination. These pH values were compared to those measured at baseline, prior to treatment administration. The results corresponding to the pH>3 and pH>4 holding time for 24 h, expressed in percent, are described below: […]

CYP2C19 = CYP2C19 (Homo sapiens, UniProt P33261); assay: in vitro metabolism by cytochrome: maximal rate of metabolism (Vmax); format: in vitro ADME; details: for Vmax (maximal rate of metabolism): in vitro
CYP2C19, sequence (P33261 whole entry): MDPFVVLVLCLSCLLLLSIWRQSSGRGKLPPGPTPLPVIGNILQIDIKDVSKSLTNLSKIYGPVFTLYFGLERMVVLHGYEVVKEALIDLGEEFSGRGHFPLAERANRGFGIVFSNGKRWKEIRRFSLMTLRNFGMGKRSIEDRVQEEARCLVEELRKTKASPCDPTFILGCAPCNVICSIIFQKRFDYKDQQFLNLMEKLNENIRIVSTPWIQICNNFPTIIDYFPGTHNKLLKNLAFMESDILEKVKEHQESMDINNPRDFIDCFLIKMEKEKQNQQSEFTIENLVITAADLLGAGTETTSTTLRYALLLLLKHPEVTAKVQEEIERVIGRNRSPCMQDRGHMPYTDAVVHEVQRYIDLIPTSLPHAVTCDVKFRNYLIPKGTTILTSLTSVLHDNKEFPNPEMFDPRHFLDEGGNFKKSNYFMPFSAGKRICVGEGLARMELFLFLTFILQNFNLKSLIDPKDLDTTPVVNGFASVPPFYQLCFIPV
Text: Vmax (−) is the value of Vmax of the (−) enantiomer of tenatoprazole.

[4] = test system: cytochromes CYP3A4 and CYP2C19; assay: cytochromes that intervene in the metabolism of tenatoprazole; format: in vitro ADME
Text: Further, it has been shown that different cytochromes intervene in the metabolism of tenatoprazole.

[5] = analysis of plasma enantiomers in subjects by CYP2C19 genotype; format: in vivo, human; details: for enantiomer in plasma: CYP2C19*2/*2 genotype, weak activity of cytochrome CYP2C19, slow metabolisers; for enantiomer in plasma (concentration): CYP2C19*1/*1 genotype, normal activity of cytochrome CYP2C19, rapid metabolisers
Text: More particularly, the unexpected pharmacokinetic properties of the (−) enantiomer of tenatoprazole were discovered during an extensive program of pharmacokinetic and metabolism studies in vitro and in vivo.
The homozygous subjects have a very weak metabolic activity of the cytochrome CYP2C19 which is responsible for the metabolism of tenatoprazole. […] These subjects are qualified as “slow metabolisers”.

[6] = pharmacokinetic study in Caucasian subjects, acute and repeated administration (7 days) of tenatoprazole; format: in vivo, human
Protocol: In order to assess the difference in pharmacokinetic characteristics between the (−) enantiomer of the invention and the (+) enantiomer, a pharamcokinetic study was conducted.
Said study was carried out in Caucasian subjects, after an acute and repeated administration (7 days) of tenatoprazole. […] In contrast, it was observed that the evolution of the plasma concentration of the (+) isomer is not linear, and thus not predictive of the efficacy and the tolerability of the drug.

[7] = elimination half-life in slow metabolisers; format: in vivo, human; details: slow metabolisers (deficient in CYP2C19 activity)
Protocol: In another study, it was assessed that the elimination half-life of the (−) isomer of tenatoprazole is approximately 4 times shorter than that of the (+) isomer in slow metabolisers (which are deficient in CYP2C 19 activity), as summarised in the following table: […]

[8] = test system: ulcerative lesions in rats; assay: onset of healing and normalisation of histological changes of ulcerative lesions in rats; format: in vivo
Text: In vivo Studies in Rats: Assessment of the Onset of Healing and the Increase of Normalisation of Histological Changes of the Lesions. […] Thus, the effect observed with the (−) enantiomer of tenatoprazole appeared 1 day before those of the (+) enantiomer. […] These changes consisted in a reduction of the ultrastructural damage resulting in a complete morphological recovery of the oesophageal epithelium.

[9] = in vivo pharmacokinetic and metabolism study in dogs
[10] = mean plasma half-life at doses between 10 mg and 80 mg; format: in vivo; details: human, doses of between 10 mg and 80 mg
Protocol: In contrast, previous studies have shown that the racemic mixture has a mean plasma half-life of approximately 7 hours at this range of doses

[11] = 10 h after treatment administration, gastric secretions measured 4 h after the ligature
[12] = after 7 days of treatment with tenatoprazole

COc1ccc2[nH]c([S+]([O-])Cc3ncc(C)c(OC)c3C)nc2n1 (racemic) [racemic mixture, 5-methoxy-2-[[(4-methoxy-3,5-dimethyl-2-pyridyl)methyl]sulfinyl]imidazo[4,5-b]pyridine]
mean plasma half-life [1]: approximately 7 hours
half-life in plasma compared with the other PPIs [2]: approximately seven times longer

COc1ccc2[nH]c([S@+]([O-])Cc3ncc(C)c(OC)c3C)nc2n1 (single isomer, unassigned) [(+) isomer, reference compound]
Free acid (gastric acidity, change as compared to the control group) [3, 11]: −30%
pH (change as compared to the control group) [3, 11]: +30%
pharmacological effect 10 h after treatment administration [3]: no longer significant
inhibition of gastric secretion (intragastric pH in dogs; 10 mg/kg/day for 6 days): inhibit gastric secretion
Vmax (maximal rate of metabolism) (CYP2C19): 12.63 pmol/min per pmol of cytochrome
cytochromes via which the enantiomer is metabolised [4]: mainly the CYP2C19 and, to a lesser extent, by CYP3A4
enantiomer in plasma ([5]; listed as (+) Enantiomer): Increased
enantiomer in plasma ([5]; listed as (+) enantiomer): highly significant increase
plasma concentration versus dose [6, 12]: not linear
T1/2 (elimination half-life) [7]: 36.7 ± 4.5 h

COc1ccc2[nH]c([S+]([O-])Cc3ncc(C)c(OC)c3C)nc2n1 (single isomer, unassigned; (-)) [(−) isomer, (−)-5-methoxy-2-[[(4-methoxy-3,5-dimethyl-2-pyridyl)methyl]sulfinyl]imidazo[4,5-b]pyridine]
pharmacological effect 10 h after treatment administration [3]: remains pharmacologically active
inhibition of gastric secretion (intragastric pH in dogs; 10 mg/kg/day for 6 days): inhibit gastric secretion
time over which a significant effect is observed (intragastric pH in dogs; 10 mg/kg/day for 6 days, compared to baseline): from the first day of administration, and is maintained until two days after treatment termination
% of holding time for 24 hours pH > 3 (intragastric pH in dogs; 1st day of treatment): 73%
% of holding time for 24 hours pH > 4 (intragastric pH in dogs; 1st day of treatment): 55%
% of holding time for 24 hours pH > 3 (intragastric pH in dogs; 2nd day of treatment): 82%
% of holding time for 24 hours pH > 4 (intragastric pH in dogs; 2nd day of treatment): 75%
% of holding time for 24 hours pH > 3 (intragastric pH in dogs; 6th day of treatment): 93%
% of holding time for 24 hours pH > 4 (intragastric pH in dogs; 6th day of treatment): 75%
quality of healing (normalization of histological changes) [8]: significant increase
onset of healing of ulcerative lesions ([8]; as compared with the (+) enantiomer): significantly improved
appearance of the effect before that of the (+) enantiomer ([8]; healing of ulcerative lesions): 1 days
metabolised more slowly than the (+) enantiomer (CYP2C19; from Vmax values): approximately 7 times
Vmax (maximal rate of metabolism) (CYP2C19): 1.90 pmol/min per pmol of cytochrome
cytochromes via which the enantiomer is metabolised ([4]; human, cytochromes (CYP3A4, CYP2C19) in vitro): mainly metabolised via the cytochrome CYP3A4
enantiomer in plasma (concentration) ([5]; listed as (−) Enantiomer): Increased
enantiomer in plasma (concentration) ([5]; listed as (−) enantiomer): higher than that of the (+) enantiomer
half-life in comparison with the (+) enantiomer [9]: significantly longer
AUC versus dose [6, 12]: linear with the dose
plasma concentration versus dose [6, 12]: linear with the dose
between-subject variability of pharmacokinetic parameters ([6]; compared to the (+) isomer): markedly lower
half-life ([7]; human, in vivo, read-out: T1/2 (elimination half-life) (converted)): 9.7 ± 0.9 h
elimination half-life shorter than that of the (+) isomer [7]: approximately 4 times
half-life [10]: 10 to 12 h
